Values quoted from earlier work, collected in patent publication US8853212B2, “Substituted aminotetrahydrothiopyrans and derivatives thereof as dipeptidyl peptidase-IV inhibitors for the treatment of diabetes” (Merck Sharp & Dohme Corp, priority 2010, dated 2014).

Assays:
cardiac allograft = conditions: rats; doubled from day 7
hematopoiesis = conditions: mouse, cyclophosphamide-induced neutropenia
DPP-4 = DPP-4 (Homo sapiens (Human), UniProt P27487)
Chain of DPP-4 (P27487 39-766, species assumed): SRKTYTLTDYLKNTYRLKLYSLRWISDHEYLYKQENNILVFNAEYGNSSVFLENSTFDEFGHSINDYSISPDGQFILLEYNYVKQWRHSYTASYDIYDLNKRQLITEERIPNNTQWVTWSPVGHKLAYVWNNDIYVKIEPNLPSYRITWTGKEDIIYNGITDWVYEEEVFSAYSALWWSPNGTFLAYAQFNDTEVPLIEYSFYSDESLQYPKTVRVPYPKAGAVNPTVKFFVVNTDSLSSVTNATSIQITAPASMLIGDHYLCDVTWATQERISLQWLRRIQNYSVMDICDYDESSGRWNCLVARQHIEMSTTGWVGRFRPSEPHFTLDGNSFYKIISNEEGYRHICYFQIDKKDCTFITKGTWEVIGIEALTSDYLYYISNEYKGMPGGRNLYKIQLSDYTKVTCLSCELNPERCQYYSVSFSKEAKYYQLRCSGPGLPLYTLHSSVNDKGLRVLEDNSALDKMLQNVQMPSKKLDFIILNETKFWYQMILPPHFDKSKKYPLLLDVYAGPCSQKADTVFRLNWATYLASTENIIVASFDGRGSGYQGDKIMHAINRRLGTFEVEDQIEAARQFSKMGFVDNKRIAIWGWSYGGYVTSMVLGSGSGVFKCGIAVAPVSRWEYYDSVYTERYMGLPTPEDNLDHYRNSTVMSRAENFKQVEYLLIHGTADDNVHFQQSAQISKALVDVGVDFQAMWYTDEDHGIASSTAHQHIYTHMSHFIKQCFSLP

Molecule: CC(C)N1CCC(c2ccccc2)(c2ccccc2)CC1 [Prodipine, Pro-Pro-diphenyl-phosphonate]
- cardiac allograft survival (cardiac allograft): 14 day

Molecule: CC(C)[C@H](N)C(=O)N1CCC[C@H]1B(O)O [Val-Bono-Pro]
- hematopoiesis (hematopoiesis): stimulated hematopoiesis

Molecule: diprotin A
- degradation of GRF in plasma to GRF[3-44] (DPP-4): prevented
